The test system of experiment [1] is PC3. Description: Cytotoxicity propidium iodide assay, PC3. The following applies: for inhibition at 1 µM / IC50 / inhibition at 10 µM: Homo sapiens, PC-3; for inhibition at 1 µM: read-out: % Inhibition at 1 μM, C2a; for IC50: PC3 (prostate), 48 hours treatment, read-out: IC50 Values in μM, C2a; for inhibition at 10 µM: PC3, 10 μM (stated in cell), read-out: % Inhibition at 10 μM, C2a. The experiment is classed as cell-based, human. As to the method: (§1) The assay was designed as in the reference, Anticancer Drugs, 2002, 13, 1-8, the disclosure of which is incorporated herein by reference for the teaching of the assay.
(§2) Cells from cell lines (ATCC) as mentioned in the table given below were seeded at a density of 3000 cells/well in a white opaque 96-well plate. Following incubation at 37° C./5% CO2 for a period of 18-24 hours, the cells were treated with various concentrations (stock solution was prepared in DMSO and subsequent dilutions were made in media as per ATCC guidelines) of the compounds of the present invention for a period of 48 hours. At the end of treatment, the culture medium was discarded, the cells were washed with 1×PBS and 200 μL of […] propidium iodide was added to each well. The plates were frozen at […] overnight. For analysis, the plates were warmed to RT, allowed to thaw and were read in PoleStar fluorimeter with the fluorescence setting. The percentage of viable cells in the non-treated set of wells was considered to be 100 and the percentage viability following treatment was calculated accordingly. IC50 values were calculated from graphs plotted using these percentages. IC50 values for certain compounds of present invention are depicted in Table 1 and % Inhibition of certain compounds of present invention are depicted in Table 2.

In experiment [2] the test system is A2780. Description: Cytotoxicity propidium iodide assay, A2780. The following applies: for inhibition at 1 µM / IC50 / inhibition at 10 µM: Homo sapiens; for inhibition at 1 µM: read-out: % Inhibition at 1 μM, C1a; for IC50: A2780 (ovarian), 48 hours treatment, read-out: IC50 Values in μM, C1a; for inhibition at 10 µM: A2780, 10 μM (stated in cell), read-out: % Inhibition at 10 μM, C1a. It counts as cell-based. As to the method:
as §1, §2

The text below walks through data of patent publication US20130310374A1, “Substituted Imidazoquinoline Derivatives” (PIRAMAL ENTERPRISES LIMITED`, priority 2010, published 2013).

Broadly, the % Inhibition is how much of the control response was suppressed. Consider “6-Chloro-5-(3-methyl-2-oxo-8-(quinolin-3-yl)-2,3-dihydro-1H-imidazo[4,5-c]quinolin-1-yl)picolinonitrile [Example 58]”, for which the “% Inhibition at 1 μM, C2a” value in experiment [1] (PC3, 1 μM, 48 hours) amounted to 60%. Moreover, in experiment [2] (A2780, 1 μM, 48 hours), the “% Inhibition at 1 μM, C1a” value is listed as 91%.
For orientation: inhibition means the share of the control response that was lost under treatment. As to `Cn1c(=O)n(-c2ccc(C(C)(C)C#N)nc2)c2c3cc(-c4cncc(C(F)(F)F)c4)ccc3ncc21` [Example 4, 2-Methyl-2-(5-(3-methyl-2-oxo-8-(5-(trifluoromethyl)pyridin-3-yl)-2,3-dihydro-1H-imidazo[4,5-c]quinolin-1-yl)pyridin-2-yl)propanenitrile], the inhibition at 1 µM in experiment [1] (PC3, 1 μM, 48 hours) amounted to 72.6%; in experiment [2] (A2780, 1 μM, 48 hours), 89.2%.
In the same order, the values of `Cn1c(=O)n(-c2ccc(C(C)(C)C#N)nc2)c2c3cc(-c4cncc5ccccc45)ccc3ncc21` [Example 6, 2-(5-(8-(Isoquinolin-4-yl)-3-methyl-2-oxo-2,3-dihydro-1H-imidazo[4,5-c]quinolin-1-yl)pyridin-2-yl)-2-methylpropanenitrile] are 69.5% and 85.3%.
As usually defined, the IC50 is the concentration that gives 50% inhibition. As for `CC(C)(C#N)c1ccc(-n2c(=O)n(CC#N)c3cnc4ccc(-c5cccnc5)cc4c32)cn1` [Example 14, 2-(5-(3-(Cyanomethyl)-2-oxo-8-(pyridin-3-yl)-2,3-dihydro-1H-imidazo[4,5-c]quinolin-1-yl)pyridin-2-yl)-2-methylpropanenitrile], the values for the IC50 in experiment [1] and in experiment [2] were 0.42 µM and 0.4 µM, respectively.
As to `COc1ccc(-n2c(=O)n(CC#N)c3cnc4ccc(-c5cccnc5)cc4c32)cn1` [Example 21, 2-(1-(6-Methoxypyridin-3-yl)-2-oxo-8-(pyridin-3-yl)-1H-imidazo[4,5-c]quinolin-3(2H)-yl)acetonitrile], the inhibition at 1 µM turned out to be 27% in experiment [1] (PC3, 1 μM, 48 hours) and 38% in experiment [2] (A2780, 1 μM, 48 hours).
The corresponding values for `COc1ccc(-n2c(=O)n(C)c3cnc4ccc(-c5cncc(C(F)(F)F)c5)cc4c32)cn1` [Example 22, 1-(6-Methoxypyridin-3-yl)-3-methyl-8-(5-(trifluoromethyl)pyridin-3-yl)-1H-imidazo[4,5-c] quinolin-2(3H)-one] are 67.8% and 83.1%.
On to `COc1ccc(-n2c(=O)n(CC#N)c3cnc4ccc(-c5cnc6ccccc6c5)cc4c32)cn1` [Example 24, 2-(1-(6-Methoxypyridin-3-yl)-2-oxo-8-(quinolin-3-yl)-1H-imidazo[4,5-c]quinolin-3(2H)-yl)acetonitrile], for which the inhibition at 1 µM in experiment [1] (PC3, 1 μM, 48 hours) came to 39%; in experiment [2] (A2780, 1 μM, 48 hours), 66%.
The corresponding values for `COc1ccc(-n2c(=O)n(C)c3cnc4ccc(-c5ccc(N(C)C)nc5)cc4c32)cn1` [Example 25, 8-(6-(Dimethylamino)pyridin-3-yl)-1-(6-methoxypyridin-3-yl)-3-methyl-1H-imidazo[4,5-c] quinolin-2(3H)-one] are 69% and 83.4%.
In the same order, the values of `CCOc1ccc(-n2c(=O)n(C)c3cnc4ccc(-c5cnc(N)c(C(F)(F)F)c5)cc4c32)cn1` [Example 30, 8-(6-Amino-5-(trifluoromethyl)pyridin-3-yl)-1-(6-ethoxypyridin-3-yl)-3-methyl-1H-imidazo[4,5-c]quinolin-2(3H)-one] are 71% and 94%.
In the same order, the values of `COc1ccc(-n2c(=O)n(CC#N)c3cnc4ccc(-c5ccc(C(F)(F)F)nc5)cc4c32)c(C)n1` [Example 37, 2-(1-(6-Methoxy-2-methylpyridin-3-yl)-2-oxo-8-(6-(trifluoromethyl)pyridin-3-yl)-1H-imidazo[4,5-c]quinolin-3(2H)-yl)acetonitrile] are 49.5% and 70%.
For `COc1ccc(-n2c(=O)n(C)c3cnc4ccc(-c5cnc(N)c(C(F)(F)F)c5)cc4c32)c(C)n1` [Example 38, 8-(6-Amino-5-(trifluoromethyl)pyridin-3-yl)-1-(6-methoxy-2-methylpyridin-3-yl)-3-methyl-1H-imidazo[4,5-c]quinolin-2(3H)-one], the half-maximal inhibitory concentration (IC50) was 0.0078 µM in experiment [1] and under 0.005 µM in experiment [2].
As to `COc1ccc(-n2c(=O)n(C)c3cnc4ccc(-c5cncc(C(F)(F)F)c5)cc4c32)c(C)n1` [Example 39, 1-(6-Methoxy-2-methylpyridin-3-yl)-3-methyl-8-(5-(trifluoromethyl)pyridin-3-yl)-1H-imidazo[4,5-c]quinolin-2(3H)-one], the inhibition at 1 µM in experiment [1] (PC3, 1 μM, 48 hours) amounted to 68.8%; in experiment [2] (A2780, 1 μM, 48 hours), 83.4%.
In the same order, the values of `COc1ccc(-n2c(=O)n(C)c3cnc4ccc(-c5cnc6ccccc6c5)cc4c32)c(C)n1` [Example 41, 1-(6-Methoxy-2-methylpyridin-3-yl)-3-methyl-8-(quinolin-3-yl)-1H-imidazo[4,5-c]quinolin-2(3H)-one] are 68% and 80%.
In the case of `N#CCn1c(=O)n(-c2ccc(C#N)nc2)c2c3cc(-c4cccnc4)ccc3ncc21` [Example 42, 5-(3-(Cyanomethyl)-2-oxo-8-(pyridin-3-yl)-2,3-dihydro-1H-imidazo[4,5-c]quinolin-1-yl)picolinonitrile], the inhibition at 1 µM in experiment [1] (PC3, 1 μM, 48 hours) is 60 to 80%; in experiment [2] (A2780, 1 μM, 48 hours), 60 to 80%.
With `CC(C#N)n1c(=O)n(-c2ccc(C#N)nc2)c2c3cc(-c4cccnc4)ccc3ncc21` (centres unmarked) [Example 43, 5-(3-(1-Cyanoethyl)-2-oxo-8-(pyridin-3-yl)-2,3-dihydro-1H-imidazo[4,5-c]quinolin-1-yl)picolinonitrile], the inhibition at 1 µM was found to be 13% in experiment [1] (PC3, 1 μM, 48 hours) and 8% in experiment [2] (A2780, 1 μM, 48 hours).
The corresponding values for `Cn1c(=O)n(-c2ccc(C#N)nc2)c2c3cc(-c4cnc(N)c(C(F)(F)F)c4)ccc3ncc21` [Example 45, 5-(8-(6-Amino-5-(trifluoromethyl)pyridin-3-yl)-3-methyl-2-oxo-2,3-dihydro-1H-imidazo[4,5-c]quinolin-1-yl)picolinonitrile] are 37% and 52%.
Take `Cn1c(=O)n(-c2ccc(C#N)nc2)c2c3cc(-c4cccnc4F)ccc3ncc21` [Example 46, 5-(8-(2-Fluoropyridin-3-yl)-3-methyl-2-oxo-2,3-dihydro-1H-imidazo[4,5-c]quinolin-1-yl)picolinonitrile]: the inhibition at 1 µM in experiment [1] (PC3, 1 μM, 48 hours) worked out at 27%; in experiment [2] (A2780, 1 μM, 48 hours), 34%.
Take `Cn1c(=O)n(-c2ccc(C#N)nc2)c2c3cc(-c4ccc(F)nc4)ccc3ncc21` [Example 47, 5-(8-(6-Fluoropyridin-3-yl)-3-methyl-2-oxo-2,3-dihydro-1H-imidazo[4,5-c]quinolin-1-yl)picolinonitrile]: the inhibition at 10 µM in experiment [1] (48 hours) and in experiment [2] (48 hours) was 40 to 60% each time.
On to `COc1ccc(-c2ccc3ncc4c(c3c2)n(-c2ccc(C#N)nc2)c(=O)n4C)cn1` [Example 48, 5-(8-(6-Methoxypyridin-3-yl)-3-methyl-2-oxo-2,3-dihydro-1H-imidazo[4,5-c]quinolin-1-yl)picolinonitrile], for which the inhibition at 10 µM in experiment [1] (48 hours) and in experiment [2] (48 hours) was 40 to 60% throughout.
Take `N#CCn1c(=O)n(-c2ccc(C#N)nc2)c2c3cc(-c4cnc5ccccc5c4)ccc3ncc21` [Example 51, 5-(3-(Cyanomethyl)-2-oxo-8-(quinolin-3-yl)-2,3-dihydro-1H-imidazo[4,5-c]quinolin-1-yl)picolinonitrile]: the inhibition at 1 µM was determined as 41% in experiment [1] (PC3, 1 μM, 48 hours) and 73% in experiment [2] (A2780, 1 μM, 48 hours).
Regarding `CC(C#N)n1c(=O)n(-c2ccc(C#N)nc2)c2c3cc(-c4cnc5ccccc5c4)ccc3ncc21` (centres unmarked) [Example 52, 5-(3-(1-Cyanoethyl)-2-oxo-8-(quinolin-3-yl)-2,3-dihydro-1H-imidazo[4,5-c]quinolin-1-yl)picolinonitrile], the inhibition at 1 µM in experiment [1] (PC3, 1 μM, 48 hours) was 12%; in experiment [2] (A2780, 1 μM, 48 hours) it was 36%.
Consider `Cn1c(=O)n(-c2ccc(C(F)(F)F)nc2)c2c3cc(-c4cccnc4)ccc3ncc21` [Example 53, 3-Methyl-8-(pyridin-3-yl)-1-(6-(trifluoromethyl)pyridin-3-yl)-1H-imidazo[4,5-c]quinolin-2(3H)-one], for which the values for the IC50 in experiment [1] and in experiment [2] were 0.75 µM and 0.55 µM, respectively.
With `Cn1c(=O)n(-c2ccc(C(F)(F)F)nc2)c2c3cc(-c4ccc(C(F)(F)F)nc4)ccc3ncc21` [Example 56, 3-Methyl-1,8-bis(6-(trifluoromethyl)pyridin-3-yl)-1H-imidazo [4,5-c]quinolin-2(3H)-one], the inhibition at 1 µM in experiment [1] (PC3, 1 μM, 48 hours) came out at 32%; in experiment [2] (A2780, 1 μM, 48 hours), 57%.
For `Cn1c(=O)n(-c2ccc(Cl)nc2)c2c3cc(-c4cccnc4)ccc3ncc21` [Example 60, 1-(6-Chloropyridin-3-yl)-3-methyl-8-(pyridin-3-yl)-1H-imidazo[4,5-c]quinolin-2(3H)-one], the IC50 amounted to 0.85 µM in experiment [1] and 0.68 µM in experiment [2].
In the same order, the values of `Cn1c(=O)n(CCN2CCOCC2)c2c3cc(-c4cnc(N)c(C(F)(F)F)c4)ccc3ncc21` [Example 69, 8-(6-Amino-5-(trifluoromethyl)pyridin-3-yl)-3-methyl-1-(2-morpholinoethyl)-1H-imidazo[4,5-c]quinolin-2(3H)-one] are 0.07 µM and 0.022 µM.
